Measurements: patent US4843062A, “N-acyl-N-napthoylglycines as aldose reductase inhibitors” (American Home Products Corporation, priority 1987, dated 1989)
Where two headings read alike, the source gives them in different places. Blank lines part the entries; values can stand above or below the molecule they belong to.

Tests used:
[1] = system: diaphragm (galactitol accumulation); assay: Galactitol (dulcitol) accumulation in diaphragm of galactosemic rats; assay type: in vivo, rat (male, Sprague-Dawley); details: four days
Description: (§1) Such experiments are exemplified hereinbelow after the listing of the following general comments pertaining to these experiments.
(§2) (a) Four or more groups of six male rats, 50-70 g, Sprague-Dawley strain, were used. The first group, the control group, was fed a mixture of laboratory chow (rodent Laboratory Chow, Purina) and glucose at 20% (w/w %) concentration. […] The test compound was either admixed to the diet or administered by gavage. In experiments involving compound administration in the diet, the average dose administered was calculated from the actual food intake of the animals in each group. The concentration of galactose in the diet of the treated groups was the same as that for the untreated galactosemic group.
(§3) (c) The polyol determination was performed by a modification of the procedure of M. Kraml and L. Cosyns, Clin. Biochem., 2,373 (1969). Only two minor reagent changes were made: (a) The rinsing mixture was an aqueous 5% (w/v) trichloroacetic acid solution and (b) the stock solution was prepared by dissolving 25 mg of dulcitol in 100 mL of an aqueous trichloroacetic acid solution. [N.B.: For each experiment the average value found in the tissue from rats fed the glucose diet was subtracted from the individual values found in the corresponding tissue in galactose-fed rats to obtain the amount of polyol accumulated.] […] In the present case the procedure of Hayman and Kinoshita was modified in that the final chromatography step was omitted in the preparation of the enzyme from bovine lens.
(§4) The figures under L, N, and D represent the percentage decrease of galactitol accumulation in the tissues of the lens, sciatic nerve, and diaphragm, respectively, for treated rats as compared to untreated rats.

[2] = system: sciatic nerve (galactitol accumulation); assay: Galactitol (dulcitol) accumulation in sciatic nerve of galactosemic rats; assay type: in vivo, rat (male, Sprague-Dawley); details: four days
Description: as §1, §2
(§5) (b) After four days, the animals were killed by decapitation. The eyeballs were removed and punctured with a razor blade; the freed lenses were rolled gently on filter paper and weighed. The sciatic nerves were dissected as completely as possible and weighed. Both tissues when frozen can be kept up to two weeks before being analyzed for galactitol.
as §3, §4

[3] = system: lens (galactitol accumulation); assay: Galactitol (dulcitol) accumulation in lens of galactosemic rats; assay type: in vivo, rat (male, Sprague-Dawley); details: four days
Description: (§6) The aldose reductase inhibiting property of the compounds of this invention and the utilization of the compounds in preventing, diminishing and alleviating diabetic complications are demonstrable in experiments using galactosemic rats, see Dvornik et al, Science, 182, 1146 (1973). Such experiments are exemplified hereinbelow after the listing of the following general comments pertaining to these experiments.
(§7) (a) Four or more groups of six male rats, 50-70 g, Sprague-Dawley strain, were used. The first group, the control group, was fed a mixture of laboratory chow (rodent Laboratory Chow, Purina) and glucose at 20% (w/w %) concentration. The untreated galactosemic group and the drug-treated groups were fed a similar diet in which galactose is substituted for glucose. The test compound was either admixed to the diet or administered by gavage. In experiments involving compound administration in the diet, the average dose administered was calculated from the actual food intake of the animals in each group. The concentration of galactose in the diet of the treated groups was the same as that for the untreated galactosemic group.
as §5
(c) The polyol determination was performed by a modification of the procedure of M. Kraml and L. Cosyns, Clin. Biochem., 2,373 (1969). Only two minor reagent changes were made: (a) The rinsing mixture was an aqueous 5% (w/v) trichloroacetic acid solution and (b) the stock solution was prepared by dissolving 25 mg of dulcitol in 100 mL of an aqueous trichloroacetic acid solution. [N.B.: For each experiment the average value found in the tissue from rats fed the glucose diet was subtracted from the individual values found in the corresponding tissue in galactose-fed rats to obtain the amount of polyol accumulated.] The aldose reductase inhibiting effects of the compounds of formula (I) were also tested by employing an in vitro testing procedure similar to that described by S. Hayman and J. H. Kinoshita, J. Biol. Chem., 240,877 (1965). In the present case the procedure of Hayman and Kinoshita was modified in that the final chromatography step was omitted in the preparation of the enzyme from bovine lens.
as §4

aldose reductase = target: T1, aldose reductase (Bos taurus, UniProt P16116); assay: Aldose reductase inhibition in vitro (enzyme preparation from bovine lens, modified Hayman and Kinoshita procedure); assay type: biochemical; details: for inhibition at 10 µM / inhibition at 1 µM: read-out: % Inhibition IN VITRO; for inhibition at 0.1 µM / % Inhibition IN VITRO: 10^-7 M
T1 construct: preparation of the enzyme from bovine lens; from tissue; host or cells: bovine lens
Protocol: as §3, with “Only” for “(c) The polyol determination was performed by a modification of the procedure of M. Kraml and L. Cosyns, Clin. Biochem., 2,373 (1969). Only”

rats fed galactose = assay: Galactosemic rat experiments; assay type: in vivo, rat (male, Sprague-Dawley)
Description: as §6, §7
(b) After four days, the animals were killed by decapitation. […] Both tissues when frozen can be kept up to two weeks before being analyzed for galactitol. […]

inhibition at 10 µM (aldose reductase; 10^-5 M): 82%
inhibition at 1 µM (aldose reductase; 10^-6 M): 41%
inhibition at 0.1 µM (aldose reductase): 7%
SMILES: CC(=O)N(CC(=O)O)C(=O)c1cccc2c(Br)cccc12 [Example 15]
% Lowering dulcitol accumulation IN VIVO (%)D ([1]; 112 mg/kg): N.S.
% Lowering dulcitol accumulation IN VIVO (%)N ([2]; 112 mg/kg): N.S.
% Lowering dulcitol accumulation IN VIVO (%)L ([3]; 112 mg/kg): N.S.

inhibition at 10 µM (aldose reductase; 10^-5 M): 90%
inhibition at 1 µM (aldose reductase; 10^-6 M): 73%
inhibition at 0.1 µM (aldose reductase): 22%
SMILES: O=CN(CC(=O)O)C(=O)c1cccc2c(Br)cccc12 [Example 14]
% Lowering dulcitol accumulation IN VIVO (%)N ([2]; 104 mg/kg): N.S
% Lowering dulcitol accumulation IN VIVO (%)L ([3]; 104 mg/kg): N.S.

inhibition at 10 µM (aldose reductase; 10^-5 M): 22%
inhibition at 1 µM (aldose reductase; 10^-6 M): 3%
% Inhibition IN VITRO (aldose reductase): N.S.
SMILES: COc1ccc2c(C(=O)N(CC(=O)O)C(=O)N(C)C)cccc2c1C(F)(F)F [Example 11, N-[(Dimethylamino)carbonyl]-N-[[6-methoxy-5-(trifluoromethyl)-1-naphthalenyl]carbonyl]glycine]

inhibition at 0.04 µM (aldose reductase; 4 × 10^-8 M): 48%
inhibition at 10 µM (aldose reductase; 10^-5 M): 95%
inhibition at 1 µM (aldose reductase; 10^-6 M): 90%
inhibition at 0.1 µM (aldose reductase): 81%
SMILES: CCCOC(=O)N(CC(=O)O)C(=O)c1cccc2c(C(F)(F)F)c(OC)ccc12 [Example 3]
% Lowering dulcitol accumulation IN VIVO (%)D ([1]; 48 mg/kg): N.S.
% Lowering dulcitol accumulation IN VIVO (%)N ([2]; 48 mg/kg): N.S.
% Lowering dulcitol accumulation IN VIVO (%)L ([3]; 48 mg/kg): N.S.

SMILES: COc1ccc2c(C(=O)N(CC(=O)O)C(C)=O)cccc2c1C(F)(F)F [Example 9]
% Lowering dulcitol accumulation IN VIVO (%)N ([2]; 100 mg/kg): 36%
% Lowering dulcitol accumulation IN VIVO (%)L ([3]; 100 mg/kg): N.S.
inhibition at 1 µM (aldose reductase; 10^-6 M): 91%
inhibition at 0.1 µM (aldose reductase): 61%
inhibition at 10 µM (aldose reductase): 96%

SMILES: COc1ccc2c(C(=O)N(C=O)CC(=O)O)cccc2c1C(F)(F)F [Example 8, N-Fromyl-N-[[6-methoxy-5-(trifluoromethyl)-1-naphthalenyl]carbonyl]glycine]
% Lowering dulcitol accumulation IN VIVO (%)N ([2]; 107 mg/kg): 51%
inhibition at 10 µM (aldose reductase; 10^-5 M): 95%
inhibition at 0.1 µM (aldose reductase): 89%
inhibition at 1 µM (aldose reductase): 96%

inhibition at 10 µM (aldose reductase; 10^-5 M): 90%
inhibition at 1 µM (aldose reductase; 10^-6 M): 64%
inhibition at 0.1 µM (aldose reductase): 18%
SMILES: COc1ccc2c(C(=O)N(CC(=O)O)C(=O)OCC(C)(C)C)cccc2c1C(F)(F)F [Example 5]
% Lowering dulcitol accumulation IN VIVO (%)D ([1]; 105 mg/kg): N.S.
% Lowering dulcitol accumulation IN VIVO (%)N ([2]; 105 mg/kg): N.S.
% Lowering dulcitol accumulation IN VIVO (%)L ([3]; 105 mg/kg): N.S.

inhibition at 10 µM (aldose reductase; 10^-5 M): 95%
inhibition at 1 µM (aldose reductase; 10^-6 M): 89%
inhibition at 0.1 µM (aldose reductase): 66%
SMILES: COc1ccc2c(C(=O)N(CC(=O)O)C(=O)OCc3ccccc3)cccc2c1C(F)(F)F
% Lowering dulcitol accumulation IN VIVO (%)D ([1]; 67 mg/kg): N.S.
% Lowering dulcitol accumulation IN VIVO (%)N ([2]; 67 mg/kg): N.S.
% Lowering dulcitol accumulation IN VIVO (%)L ([3]; 67 mg/kg): N.S.

SMILES: COc1ccc2c(C(=O)N(CC(=O)O)C(=O)OC(C)C)cccc2c1C(F)(F)F [Example 4]
% Lowering dulcitol accumulation IN VIVO (%)D ([1]; dose not given (N.S.)): N.S.
% Lowering dulcitol accumulation IN VIVO (%)N ([2]; dose not given (N.S.)): N.S.
% Lowering dulcitol accumulation IN VIVO (%)L ([3]; dose not given (N.S.)): N.S.

SMILES: COC(=O)N(CC(=O)O)C(=S)c1cccc2c(C(F)(F)F)c(OC)ccc12 [Example 18a, N-[[6-Methoxy-5-(trifluoromethyl)-1-naphthalenyl]thioxomethyl]-N-[(methoxy)carbonyl]glycine]
% Lowering dulcitol accumulation IN VIVO (%)N ([2]; 51 mg/kg): N.S.
% Lowering dulcitol accumulation IN VIVO (%)L ([3]; 51 mg/kg): N.S.
inhibition at 1 µM (aldose reductase; 10^-6 M): 88%
inhibition at 0.1 µM (aldose reductase): 29%
inhibition at 10 µM (aldose reductase): 94%

inhibition at 10 µM (aldose reductase; 10^-5 M): 23%
inhibition at 1 µM (aldose reductase; 10^-6 M): 4%
% Inhibition IN VITRO (aldose reductase): N.S.
SMILES: CN(C)C(=O)N(CC(=O)O)C(=O)c1cccc2c(Br)cccc12 [Example 17]

inhibition at 10 µM (aldose reductase; 10^-5 M): 98%
inhibition at 1 µM (aldose reductase; 10^-6 M): 97%
inhibition at 0.1 µM (aldose reductase): 82%
SMILES: COC(=O)N(CC(=O)O)C(=O)c1cccc2c(C(F)(F)F)c(OC)ccc12 [Example 2, N-[[6-Methoxy-5-(trifluoromethyl)-1-naphthalenyl]carbonyl]-N-[(methoxy)carbonyl]glycine]
results compared with tolrestat (rats fed galactose; 48 mg/kg/day versus tolrestat at 9 mg/kg/day): comparable results
% Lowering dulcitol accumulation IN VIVO (%)N ([2]; 48 mg/kg): 70%
% Lowering dulcitol accumulation IN VIVO (%)L ([3]; 48 mg/kg): N.S.

SMILES: CCOC(=O)N(CC(=O)O)C(=O)c1cccc2c(C(F)(F)F)c(OC)ccc12 [Example 1, N-[[6-Methoxy-5-(trifluoromethyl)-1-naphthalenyl]carbonyl]-N-[(ethoxy)carbonyl]glycine]
results compared with tolrestat (rats fed galactose; 57 mg/kg/day versus tolrestat at 9 mg/kg/day): comparable results
% Lowering dulcitol accumulation IN VIVO (%)N ([2]; 57 mg/kg): 56%
% Lowering dulcitol accumulation IN VIVO (%)N ([2]; 97 mg/kg): 90%
inhibition at 10 µM (aldose reductase; 10^-5 M): 97%
inhibition at 0.1 µM (aldose reductase): 47%
inhibition at 1 µM (aldose reductase): 94%

inhibition at 10 µM (aldose reductase; 10^-5 M): 95%
inhibition at 1 µM (aldose reductase; 10^-6 M): 89%
inhibition at 0.1 µM (aldose reductase): 49%
SMILES: COc1ccc2c(C(=O)N(CC(=O)O)C(=O)OCc3ccc(Cl)c([N+](=O)[O-])c3)cccc2c1C(F)(F)F [Example 7]
% Lowering dulcitol accumulation IN VIVO (%)D ([1]; 107 mg/kg): N.S.
% Lowering dulcitol accumulation IN VIVO (%)N ([2]; 107 mg/kg): N.S.
% Lowering dulcitol accumulation IN VIVO (%)L ([3]; 107 mg/kg): N.S.

inhibition at 10 µM (aldose reductase; 10^-5 M): 90%
inhibition at 1 µM (aldose reductase; 10^-6 M): 62%
inhibition at 0.1 µM (aldose reductase): 15%
SMILES: COc1ccc2c(C(=O)N(CC(=O)O)C(=O)c3ccccc3)cccc2c1C(F)(F)F [Example 10, N-Benzoyl-N-[[6-methoxy-5-(trifluoromethyl)-1-naphthalenyl]carbonyl]glycine]
% Lowering dulcitol accumulation IN VIVO (%)D ([1]; 50 mg/kg): N.S.
% Lowering dulcitol accumulation IN VIVO (%)N ([2]; 50 mg/kg): N.S.
% Lowering dulcitol accumulation IN VIVO (%)L ([3]; 50 mg/kg): N.S.

inhibition at 10 µM (aldose reductase; 10^-5 M): 87%
inhibition at 1 µM (aldose reductase; 10^-6 M): 57%
inhibition at 0.1 µM (aldose reductase): 12%
SMILES: O=C(O)CN(C(=O)OCc1ccccc1)C(=O)c1cccc2c(Br)cccc12 [Example 13]

inhibition at 10 µM (aldose reductase; 10^-5 M): 85%
inhibition at 1 µM (aldose reductase; 10^-6 M): 54%
inhibition at 0.1 µM (aldose reductase): 10%
SMILES: COC(=O)N(CC(=O)O)C(=O)c1cccc2c(Br)cccc12 [Example 12]
% Lowering dulcitol accumulation IN VIVO (%)N ([2]; 102 mg/kg): N.S.
% Lowering dulcitol accumulation IN VIVO (%)L ([3]; 102 mg/kg): N.S.

SMILES: COc1ccc2c(C(=S)N(C)CC(=O)O)cccc2c1C(F)(F)F [Example 18b, N-[[6-methoxy-5-(trifluoromethyl)-1-napthalenyl]thioxomethyl]-N-methyglycine, reference compound]
% Lowering dulcitol accumulation IN VIVO (%)L ([3]; 9 mg/kg): N.S.

inhibition at 10 µM (aldose reductase; 10^-5 M): 83%
inhibition at 1 µM (aldose reductase; 10^-6 M): 58%
inhibition at 0.1 µM (aldose reductase): 10%
SMILES: O=C(O)CN(C(=O)c1ccccc1)C(=O)c1cccc2c(Br)cccc12 [Example 16]
% Lowering dulcitol accumulation IN VIVO (%)D ([1]; 111 mg/kg): N.S.
% Lowering dulcitol accumulation IN VIVO (%)N ([2]; 111 mg/kg): N.S.
% Lowering dulcitol accumulation IN VIVO (%)L ([3]; 111 mg/kg): N.S.
